For 2 molecules, IC50 results are on record in PMC8403083 (OncoTargets and therapy, 2021).

For one assay, the target named is T1, CD73 (Mus musculus, UniProt Q61503).
T1 sequence (Q61503 29-551): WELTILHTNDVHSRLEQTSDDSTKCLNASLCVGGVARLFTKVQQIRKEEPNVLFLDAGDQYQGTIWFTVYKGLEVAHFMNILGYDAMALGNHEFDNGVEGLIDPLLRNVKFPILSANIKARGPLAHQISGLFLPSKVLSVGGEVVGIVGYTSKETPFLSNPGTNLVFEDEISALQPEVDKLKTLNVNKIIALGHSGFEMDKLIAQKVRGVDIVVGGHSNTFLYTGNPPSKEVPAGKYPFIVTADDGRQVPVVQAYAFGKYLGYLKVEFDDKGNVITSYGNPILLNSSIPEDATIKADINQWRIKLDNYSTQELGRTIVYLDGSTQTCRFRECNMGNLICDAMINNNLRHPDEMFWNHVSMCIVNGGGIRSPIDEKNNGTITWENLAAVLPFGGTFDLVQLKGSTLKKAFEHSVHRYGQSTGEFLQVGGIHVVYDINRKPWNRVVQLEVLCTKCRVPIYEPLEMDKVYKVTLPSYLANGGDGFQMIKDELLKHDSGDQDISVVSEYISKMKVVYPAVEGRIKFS
The assay is described as follows: CMP hydrolysis by EMT6 cells, Malachite green phosphate detection. The format is cell-based.

The target of the next assay is T2, CD73 (5ʹ-Nucleotidase) (Homo sapiens, UniProt P21589).
T2 sequence (P21589 27-547): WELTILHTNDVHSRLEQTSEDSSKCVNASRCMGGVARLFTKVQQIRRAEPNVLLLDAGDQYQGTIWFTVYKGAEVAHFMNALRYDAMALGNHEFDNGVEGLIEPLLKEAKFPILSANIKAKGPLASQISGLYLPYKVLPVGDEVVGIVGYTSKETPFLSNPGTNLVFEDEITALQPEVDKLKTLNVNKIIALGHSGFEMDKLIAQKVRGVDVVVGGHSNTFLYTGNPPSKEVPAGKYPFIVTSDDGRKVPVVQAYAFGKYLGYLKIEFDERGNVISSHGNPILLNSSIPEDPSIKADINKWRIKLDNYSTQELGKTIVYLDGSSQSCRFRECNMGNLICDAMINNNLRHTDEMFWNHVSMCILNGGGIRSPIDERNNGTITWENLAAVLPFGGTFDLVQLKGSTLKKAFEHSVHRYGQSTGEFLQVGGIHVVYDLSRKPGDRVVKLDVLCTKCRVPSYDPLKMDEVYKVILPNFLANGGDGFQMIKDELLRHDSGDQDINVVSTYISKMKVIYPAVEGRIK
The experiment in a line: Malachite green phosphate assay, CMP substrate, […] h preincubation. The assay is classed as biochemical.

As to `Nc1ncnc2c1ncn2[C@@H]1O[C@H](COP(=O)(O)CP(=O)(O)O)[C@@H](O)[C@H]1O` [AMPCP], the IC50 against CD73 came to 130 ± 8 nM; at CD73 (5ʹ-Nucleotidase), 3.8 ± 0.8 nM. Consider `O=P(O)(O)COC[C@H]1O[C@@H](n2ncc3c(N4CC5(CCc6ccccc65)C4)nc(Cl)nc32)[C@H](O)[C@@H]1O` [SHR170008, ((((2R,3S,4R,5R)-5-(6-chloro-4-(2ʹ,3ʹ-dihydrospiro[azetidine-3,1ʹ-inden]-1-yl)-1H-pyrazolo[3,4-d]pyrimidin-1-yl)-3,4-dihydroxytetrahydrofuran-2-yl)methoxy)methyl) phosphonic acid], for which the midpoint of inhibition on CD73, the IC50, lay at 0.133 ± 0.008 nM.
